Results on 3 molecules are retold here after patent publication US5432261A, “Motlin-like polypeptide and use thereof” (priority 1989, dated 1995).

Read-outs that look alike come from different tables or passages of the source. Square brackets hold non-standard residues; d marks the D form. Peptide text beside a SMILES is read from it. hSer = N[C@@H](CCO)C(=O)O

In the assay the target is upper small intestine of rabbit (Oryctolagus cuniculus, UniProt G1T803). Briefly: Intestinal contraction activity by Magnus method using upper small intestine of rabbit. On the procedure: An intestinal contraction activity was measured by Magnus method using upper small intestine of rabbit ["J. Pharm. Pharmac.", Vol. 28, pages 650-651 (1976)], on each motilin-like polypeptides (Example 1, wherein R1 is Hse, Asp-Gly-Ile-Phe-Hse, or Arg-Ile-Phe-Hse) according to the invention, as test samples and a conventional pure [Leu^13 ]-motilin, as control sample. The activities of the test samples and control sample were compared, under assumption of that an contraction activity caused by 10^-6 M acetylcholine is 100%.
upper small intestine of rabbit, sequence (G1T803 1-400): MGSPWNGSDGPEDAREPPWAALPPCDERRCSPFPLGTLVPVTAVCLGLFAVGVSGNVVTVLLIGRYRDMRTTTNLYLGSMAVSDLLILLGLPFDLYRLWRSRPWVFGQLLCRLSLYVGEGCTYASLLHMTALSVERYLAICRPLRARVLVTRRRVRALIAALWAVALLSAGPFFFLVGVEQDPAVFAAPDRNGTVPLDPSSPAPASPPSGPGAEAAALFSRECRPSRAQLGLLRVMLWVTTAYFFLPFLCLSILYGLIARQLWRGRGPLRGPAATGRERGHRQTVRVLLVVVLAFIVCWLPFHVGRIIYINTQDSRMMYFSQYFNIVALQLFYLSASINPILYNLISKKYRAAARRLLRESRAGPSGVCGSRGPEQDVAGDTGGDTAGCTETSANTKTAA

For `CC[C@H](C)[C@H](NC(=O)[C@H](CCC(=O)O)NC(=O)CNC(=O)[C@H](Cc1ccc(O)cc1)NC(=O)[C@@H](NC(=O)[C@H](Cc1ccccc1)NC(=O)[C@@H](NC(=O)[C@@H]1CCCN1C(=O)[C@@H](NC(=O)[C@@H](N)Cc1ccccc1)C(C)C)[C@@H](C)CC)[C@@H](C)O)C(=O)N[C@@H](CCC(N)=O)C(=O)N[C@@H](CCCNC(=N)N)C(=O)N[C@@H](CC(C)C)C(=O)N[C@@H](CCC(N)=O)C(=O)N[C@@H](CCC(=O)O)C(=O)N[C@@H](CCCCN)C(=O)N[C@@H](CCC(=O)O)C(=O)N[C@@H](CCCNC(=N)N)C(=O)N[C@@H](CC(N)=O)C(=O)N[C@@H](CCCCN)C(=O)NCC(=O)N[C@@H](CCC(N)=O)C(=O)N[C@@H](CCO)C(=O)O` [(10) -Ile--Leu--Hse] (H-FVPIFTYGEIQRLQEKERNKGQ[hSer]-OH), the “Activity in vitro (%)” value is reported as 110%.
On the same count and under the same terms, the value for `CC[C@H](C)[C@H](NC(=O)[C@@H]1CCCN1C(=O)[C@@H](NC(=O)[C@@H](N)Cc1ccccc1)C(C)C)C(=O)N[C@@H](Cc1ccccc1)C(=O)N[C@H](C(=O)N[C@@H](Cc1ccc(O)cc1)C(=O)NCC(=O)N[C@@H](CCC(=O)O)C(=O)N[C@@H](CC(C)C)C(=O)N[C@@H](CCC(=O)O)C(=O)N[C@@H](CCCNC(=N)N)C(=O)N[C@@H](CC(C)C)C(=O)N[C@@H](CCC(N)=O)C(=O)N[C@@H](CCC(=O)O)C(=O)N[C@@H](CCCCN)C(=O)N[C@@H](CCC(=O)O)C(=O)N[C@@H](CCCNC(=N)N)C(=O)N[C@@H](CC(N)=O)C(=O)N[C@@H](CCCCN)C(=O)NCC(=O)N[C@@H](CCC(N)=O)C(=O)N[C@@H](CCO)C(=O)O)[C@@H](C)O` [(11) -Glu--Leu--Hse] (H-FVPIFTYGELERLQEKERNKGQ[hSer]-OH) was 110%.
Consider `CC[C@H](C)[C@H](NC(=O)[C@@H]1CCCN1C(=O)[C@@H](NC(=O)[C@@H](N)Cc1ccccc1)C(C)C)C(=O)N[C@@H](Cc1ccccc1)C(=O)N[C@H](C(=O)N[C@@H](Cc1ccc(O)cc1)C(=O)NCC(=O)N[C@@H](CCC(=O)O)C(=O)N[C@@H](CC(C)C)C(=O)N[C@@H](CCC(N)=O)C(=O)N[C@@H](CCCNC(=N)N)C(=O)N[C@@H](CCSC)C(=O)N[C@@H](CCC(N)=O)C(=O)N[C@@H](CCC(=O)O)C(=O)N[C@@H](CCCCN)C(=O)N[C@@H](CCC(=O)O)C(=O)N[C@@H](CCCNC(=N)N)C(=O)N[C@@H](CC(N)=O)C(=O)N[C@@H](CCCCN)C(=O)NCC(=O)N[C@@H](CCC(N)=O)C(=O)O)[C@@H](C)O` [motilin, reference compound], for which the “Activity in vitro (%)” value (Magnus method, from ED50, contraction activity of native motilin = 100%) was determined as 100%.
